Consider 37 compounds from patent publication US7807676B2, “Diketo-Piperazine and Piperidine derivatives as antiviral agents” (priority 2006, dated 2010).

Structures are written as SMILES. Counter-ions that a name gives are not always drawn.

By EC50 is commonly meant the concentration that produces a half-maximal response.

The test system of the assay is HIV-1 single-round infectious reporter virus. As to the kind of experiment: Single-round infectious HIV-1 luciferase reporter virus infection of HeLa CD4 cells (antiviral EC50). Format: cell-based. The note with it: Human immunodeficiency virus 1, HeLa, read-out: EC50 Group from Table 3. On the procedure: • Virus production—Human embryonic Kidney cell line, 293T, was propagated in Dulbecco's Modified Eagle Medium (Invitrogen, Carlsbad, Calif.) containing 10% fetal Bovine serum (FBS, Sigma, St. Louis, Mo.). • Virus infection—Human epithelial cell line, HeLa, expressing the HIV-1 receptor CD4 was propagated in Dulbecco's Modified Eagle Medium (Invitrogen, Carlsbad, Calif.) containing 10% fetal Bovine serum (FBS, Sigma, St. Louis, Mo.) and supplemented with 0.2 mg/mL Geneticin (Invitrogen, Carlsbad, Calif.). Virus-Single-round infectious reporter virus was produced by co-transfecting human embryonic Kidney 293 cells with an HIV-1 envelope DNA expression vector and a proviral cDNA containing an envelope deletion mutation and the luciferase reporter gene inserted in place of HIV-1 nef sequences (Chen et al, Ref. 41). Transfections were performed using lipofectAMINE PLUS reagent as described by the manufacturer (Invitrogen, Carlsbad, Calif.). Experiment • 1. HeLa CD4 cells were plated in 96 well plates at a cell density of 1×10^4 cells per well in 100 μl Dulbecco's Modified Eagle Medium containing 10% fetal Bovine serum and incubated overnight. • 2. Compound was added in a 2 μl dimethylsulfoxide solution, so that the final assay concentration would be ≦10 μM. • 3. 100 μl of single-round infectious reporter virus in Dulbecco's Modified Eagle Medium was then added to the plated cells and compound at an approximate multiplicity of infection (MOI) of 0.01, resulting in a final volume of 200 μl per well. • 4. Virally-infected cells were incubated at 37 degrees Celsius, in a CO2 incubator, and harvested 72 h after infection. • 5. Viral infection was monitored by measuring luciferase expression from viral DNA in the infected cells using a luciferase reporter gene assay kit, as described by the manufacturer (Roche Molecular Biochemicals, Indianapolis, Ind.). Infected cell supernatants were removed and 50 μl of lysis buffer was added per well. After 15 minutes, 50 μl of freshly-reconstituted luciferase assay reagent was added per well. Luciferase activity was then quantified by measuring luminescence using a Wallac microbeta scintillation counter. • 6. The percent inhibition for each compound was calculated by quantifying the level of luciferase expression in cells infected in the presence of each compound as a percentage of that observed for cells infected in the absence of compound and subtracting such a determined value from 100. • 7. An EC50 provides a method for comparing the antiviral potency of the compounds of this disclosure. The effective concentration for fifty percent inhibition (EC50) was calculated with the Microsoft Excel Xlfit curve fitting software. For each compound, curves were generated from percent inhibition calculated at 10 different concentrations by using a four parameter logistic model (model 205). Table 3 is the key for the data in Table 4. Results
For orientation: In a reporter assay the amount or activity of a reporter protein is the signal.

For the compound `Nc1ncc(F)c2c(C(=O)C(=O)N3CCN(c4nnnn4-c4ccccc4)CC3)c[nH]c12` [B-17, 1-(7-amino-4-fluoro-1H-pyrrolo[2,3-c]pyridin-3-yl)-2-(4-(1-phenyl-1H-tetrazol-5-yl)piperazin-1-yl)ethane-1,2-dione], the concentration giving a half-maximal response (EC50) is below 500 nM. Regarding `CC(=O)Nc1ncc(F)c2c(C(=O)C(=O)N3CCN(c4nnnn4-c4ccccc4)CC3)c[nH]c12` [B-18, N-(4-fluoro-3-(2-oxo-2-(4-(1-phenyl-1H-tetrazol-5-yl)piperazin-1-yl)acetyl)-1H-pyrrolo[2,3-c]pyridin-7-yl)acetamide], the 50% effective concentration (EC50) is above 500 nM. With `CN(C)C(=O)Nc1ncc(F)c2c(C(=O)C(=O)N3CCN(c4nnnn4-c4ccccc4)CC3)c[nH]c12` [B-19, 3-(4-fluoro-3-(2-oxo-2-(4-(1-phenyl-1H-tetrazol-5-yl)piperazin-1-yl)acetyl)-1H-pyrrolo[2,3-c]pyridin-7-yl)-1,1-dimethylurea], the EC50 is below 500 nM. Consider `CN(C)C(=O)C(=O)Nc1ncc(F)c2c(C(=O)C(=O)N3CCN(c4nnnn4-c4ccccc4)CC3)c[nH]c12` [B-20, N^1-(4-fluoro-3-(2-oxo-2-(4-(1-phenyl-1H-tetrazol-5-yl)piperazin-1-yl)acetyl)-1H-pyrrolo[2,3-c]pyridin-7-yl)-N^2,N^2-dimethyloxalamide], for which the EC50 was below 500 nM. To `COc1cnc(-c2cc(C(=O)O)[nH]n2)c2[nH]cc(C(=O)C(=O)N3CCN(c4nnnn4-c4ccccc4)CC3)c12` [B-21, 3-(4-methoxy-3-(2-oxo-2-(4-(1-phenyl-1H-tetrazol-5-yl)piperazin-1-yl)acetyl)-1H-pyrrolo[2,3-c]pyridin-7-yl)-1H-pyrazole-5-carboxylic acid] belongs below 500 nM; to `COc1cnc(-c2cc(CO)[nH]n2)c2[nH]cc(C(=O)C(=O)N3CCN(c4nnnn4-c4ccccc4)CC3)c12` [B-22, 1-(7-(5-(hydroxymethyl)-1H-pyrazol-3-yl)-4-methoxy-1H-pyrrolo[2,3-c]pyridin-3-yl)-2-(4-(1-phenyl-1H-tetrazol-5-yl)piperazin-1-yl)ethane-1,2-dione], below 500 nM; to `CN(C)CCNc1ccn(-c2ncc(F)c3c(C(=O)C(=O)N4CCN(c5nnnn5-c5ccccc5)CC4)c[nH]c23)n1` [B-23, 1-(7-(3-(2-(dimethylamino)ethylamino)-1H-pyrazol-1-yl)-4-fluoro-1H-pyrrolo[2,3-c]pyridin-3-yl)-2-(4-(1-phenyl-1H-tetrazol-5-yl)piperazin-1-yl)ethane-1,2-dione TFA], below 500 nM. On to `COc1cnc(-c2cc(CNCCO)[nH]n2)c2[nH]cc(C(=O)C(=O)N3CCN(c4nnnn4-c4ccccc4)CC3)c12` [B-24, 1-(7-(5-((2-hydroxyethylamino)methyl)-1H-pyrazol-3-yl)-4-methoxy-1H-pyrrolo[2,3-c]pyridin-3-yl)-2-(4-(1-phenyl-1H-tetrazol-5-yl)piperazin-1-yl)ethane-1,2-dione TFA], for which the concentration giving a half-maximal response (EC50) is below 500 nM. On to `COc1cnc(-c2cc(CNCCN(C)C)[nH]n2)c2[nH]cc(C(=O)C(=O)N3CCN(c4nnnn4-c4ccccc4)CC3)c12` [B-25, 1-(7-(5-((2-(dimethylamino)ethylamino)methyl)-1H-pyrazol-3-yl)-4-methoxy-1H-pyrrolo[2,3-c]pyridin-3-yl)-2-(4-(1-phenyl-1H-tetrazol-5-yl)piperazin-1-yl)ethane-1,2-dione TFA], for which the EC50 is below 500 nM. Turning to `COc1cnc(-c2cc(CN(C)CCN(C)C)[nH]n2)c2[nH]cc(C(=O)C(=O)N3CCN(c4nnnn4-c4ccccc4)CC3)c12` [B-26, 1-(7-(5-(((2-(dimethylamino)ethyl)(methyl)amino)methyl)-1H-pyrazol-3-yl)-4-methoxy-1H-pyrrolo[2,3-c]pyridin-3-yl)-2-(4-(1-phenyl-1H-tetrazol-5-yl)piperazin-1-yl)ethane-1,2-dione TFA], the concentration giving a half-maximal response (EC50) was below 500 nM. With `COc1cnc(-c2cc(CNCCc3ccncc3)[nH]n2)c2[nH]cc(C(=O)C(=O)N3CCN(c4nnnn4-c4ccccc4)CC3)c12` [B-27, 1-(4-methoxy-7-(5-((2-(pyridin-4-yl)ethylamino)methyl)-1H-pyrazol-3-yl)-1H-pyrrolo[2,3-c]pyridin-3-yl)-2-(4-(1-phenyl-1H-tetrazol-5-yl)piperazin-1-yl)ethane-1,2-dione TFA] the figure was below 500 nM. To `O=C(C(=O)N1CCN(c2nnnn2-c2ccccc2)CC1)c1c[nH]c2c(-c3cc[nH]n3)ncc(F)c12` [B-28] belongs below 500 nM. To `Cn1ccc(-c2ncc(F)c3c(C(=O)C(=O)N4CCN(c5nnnn5-c5ccccc5)CC4)c[nH]c23)n1` [B-29] belongs below 500 nM. With `CN(C)CCn1ccc(-c2ncc(F)c3c(C(=O)C(=O)N4CCN(c5nnnn5-c5ccccc5)CC4)c[nH]c23)n1` [B-30], the concentration giving a half-maximal response (EC50) was below 500 nM.

With `O=C(C(=O)N1CCN(c2nnnn2-c2ccccc2)CC1)c1c[nH]c2c(-c3ccn(CCN4CCOCC4)n3)ncc(F)c12` [B-31], the concentration giving a half-maximal response (EC50) was below 500 nM. With `COc1cc[n+]([O-])c2[nH]cc(C(=O)C(=O)N3CCN(c4nnnn4-c4ccccc4)CC3)c12` [B-32] the figure was above 500 nM; with `CCOC(=O)c1cc(-c2ncc(F)c3c(C(=O)C(=O)N4CCN(c5nnnn5-c5ccccc5)CC4)c[nH]c23)n[nH]1` [B-33], below 500 nM; with `O=C(O)c1cc(-c2ncc(F)c3c(C(=O)C(=O)N4CCN(c5nnnn5-c5ccccc5)CC4)c[nH]c23)n[nH]1` [B-34], below 500 nM.

On to `CN(C)CCN(C)C(=O)c1cc(-c2ncc(F)c3c(C(=O)C(=O)N4CCN(c5nnnn5-c5ccccc5)CC4)c[nH]c23)n[nH]1` [B-35], for which the EC50 is below 500 nM.

For the compound `CN(CCO)C(=O)c1cc(-c2ncc(F)c3c(C(=O)C(=O)N4CCN(c5nnnn5-c5ccccc5)CC4)c[nH]c23)n[nH]1` [B-36], the half-maximal effective concentration (EC50) is below 500 nM. Consider `O=C(NCCO)c1cc(-c2ncc(F)c3c(C(=O)C(=O)N4CCN(c5nnnn5-c5ccccc5)CC4)c[nH]c23)n[nH]1` [B-37], for which the EC50 is below 500 nM. With `CN(C)CCCN(C)C(=O)c1cc(-c2ncc(F)c3c(C(=O)C(=O)N4CCN(c5nnnn5-c5ccccc5)CC4)c[nH]c23)n[nH]1` [B-38] the figure was below 500 nM.

Take `CN1CCN(CCCNC(=O)c2cc(-c3ncc(F)c4c(C(=O)C(=O)N5CCN(c6nnnn6-c6ccccc6)CC5)c[nH]c34)n[nH]2)CC1` [B-39]: the EC50 is below 500 nM.

Regarding `O=C(NCCN1CCCC1)c1cc(-c2ncc(F)c3c(C(=O)C(=O)N4CCN(c5nnnn5-c5ccccc5)CC4)c[nH]c23)n[nH]1` [B-40], the 50% effective concentration (EC50) was below 500 nM.

Consider `O=C(NCCc1ccncc1)c1cc(-c2ncc(F)c3c(C(=O)C(=O)N4CCN(c5nnnn5-c5ccccc5)CC4)c[nH]c23)n[nH]1` [B-41], for which the concentration giving a half-maximal response (EC50) is below 500 nM.

As to `O=C(NCCN1CCOCC1)c1cc(-c2ncc(F)c3c(C(=O)C(=O)N4CCN(c5nnnn5-c5ccccc5)CC4)c[nH]c23)n[nH]1` [B-42], the concentration for a half-maximal effect (EC50) is below 500 nM. Consider `CCOC(=O)c1cc(-c2ncc(F)c3c(C(=O)C(=O)N4CCN(c5nnnn5-c5ccccc5)CC4)c[nH]c23)nn1C` [B-43], for which the EC50 was below 500 nM. To `Cn1nc(-c2ncc(F)c3c(C(=O)C(=O)N4CCN(c5nnnn5-c5ccccc5)CC4)c[nH]c23)cc1C(=O)NCCO` [B-44] belongs below 500 nM; to `CN(C)CCCNC(=O)c1cc(-c2ncc(F)c3c(C(=O)C(=O)N4CCN(c5nnnn5-c5ccccc5)CC4)c[nH]c23)nn1C` [B-45], below 500 nM.

In the case of `N#Cc1ncc(F)c2c(C(=O)C(=O)N3CCN(c4nnnn4-c4ccccc4)CC3)c[nH]c12` [B-46], the EC50 is above 500 nM.

In the case of `CC(=O)c1ncc(F)c2c(C(=O)C(=O)N3CCN(c4nnnn4-c4ccccc4)CC3)c[nH]c12` [B-47], the EC50 was below 500 nM. `CO/N=C(\C)c1ncc(F)c2c(C(=O)C(=O)N3CCN(c4nnnn4-c4ccccc4)CC3)c[nH]c12` [B-48]: the EC50 is below 500 nM. To `C/C(=N\O)c1ncc(F)c2c(C(=O)C(=O)N3CCN(c4nnnn4-c4ccccc4)CC3)c[nH]c12` [B-49] belongs below 500 nM.

For `NC(=O)c1ncc(F)c2c(C(=O)C(=O)N3CCN(c4nnnn4-c4ccccc4)CC3)c[nH]c12` [B-50], the 50% effective concentration (EC50) is below 500 nM. With `CCOC(=O)c1cc(-c2ncc(F)c3c(C(=O)C(=O)N4CCN(c5c[nH]nc5-c5ccccc5)CC4)c[nH]c23)n[nH]1` [B-51] the figure was below 500 nM; with `O=C(NCCO)c1cc(-c2ncc(F)c3c(C(=O)C(=O)N4CCN(c5c[nH]nc5-c5ccccc5)CC4)c[nH]c23)n[nH]1` [B-52], below 500 nM. With `CN(C)CCCNC(=O)c1cc(-c2ncc(F)c3c(C(=O)C(=O)N4CCN(c5c[nH]nc5-c5ccccc5)CC4)c[nH]c23)n[nH]1` [B-53], the concentration giving a half-maximal response (EC50) is below 500 nM.
